Ends that are not written are not given here.
Test system: rat spontaneous urination
Test: Rat spontaneous urination test (metabolism cage, 7 days ingestion from drinking)
Assay type: in vivo
Conditions: aqueous 0.1 mg/mL LNDP solution from drinking for 7 days
Method: It was confirmed from Test Example 2 that LNDP promotes the efferent hypogastric nerve activity, and it was confirmed from Test Example 3 that LNDP inhibits the efferent the pelvic splanchnic nerve activity. Influence on the bladder, which is one of the internal organs dominated by these nerves, was therefore investigated.
Male Wistar rats which are 13 weeks old were received, and quarantined and acclimated in a thermostat animal room at 18 to 28° C. in a cycle including a 12-hour light period and a 12-hour dark period for 1 week, and ten 14- to 16-week-old rats per group were tested. An aqueous 0.1 mg/mL LNDP solution or water was ingested from drinking for 7 days, and the urination amount was measured as weight with an electronic balance installed under a urine-collecting opening in raising with a metabolism cage. The weight data of the electronic balance every minute were automatically inputted into a computer. […] The total urination amount and the frequency of urination per day were found, and the urine amount per one time of urination (=the total urination amount per day/the frequency of urination per day) was calculated as to an individual of each group. […] As to the comparison of the test substance and ingestion days with respect to each measured value, two-way analysis of variance (two-way ANOVA) with replication was performed.

“NIPPLTQTPVVVPPFLQPE [LNDP, Asn-Ile-Pro-Pro-Leu-Thr-Gln-Thr-Pro-Val-Val-Val-Pro-Pro-Phe-Leu-Gln-Pro-Glu]” was tested, and the “significant difference in change in body weight vs water ingestion group” value was “not observed” and the “significant difference in general symptoms vs water ingestion group” value was “not observed”.
